Here are results for three compounds from patent publication US11918352B2, “Non-invasive determination of a physiological state of interest in a subject” (ISBRG CORP., priority 2018, dated 2024).

Data set [1] is described as follows: Analyte composition of a subject after consumption (Table 2, simplified illustrative data set). It is filed as in vivo, human. As to conditions: for Analyte level, intoxicated state: 1 hr after consumption, THC induced intoxicated state; for Analyte level, post-intoxicated state: 36 hr after consumption. The source says:
For example, which is not to be considered limiting, in a THC induced intoxicated state, a subject may comprise the analyte composition presented in Table 1. It is to be understood that this table presents a simplified data set to exemplify the method described herein. Other analytes, which may include known analytes or ghost analytes, are indicated as analytes A, B . . . C; A′, B′, . . . C′; A″, B″ . . . C″. These other analytes may increase or decrease in response to, or that are correlated with, the physiological condition and they may be included in this analysis.
In this example, the result may be considered positive for a THC-induced intoxicated state if the Index is greater than a preset value which is determined based on an analysis of the analytes determined in subjects who were exposed to a control treatment, or a range of THC under controlled conditions, for example an Index value of (2+A)/(C+ . . . +C) may be an indication of a positive result for the state of THC-induced intoxication.

For data set [2] the following is noted: cited from earlier work.

With `CCCCCc1cc(O)c2c(c1)OC(C)(C)C1CCC(CO)=CC21` (stereo not shown) [11-OH-THC, 11-hydroxy THC], in data set [1], the “Analyte level, intoxicated state” value amounted to 5 ng/mL and the “Analyte level, post-intoxicated state” value was found to be 2 ng/mL.
`CCCCCc1cc(O)c2c(c1)OC(C)(C)[C@@H]1CCC(C)=C[C@@H]21` [THC, delta-9-tetrahydrocannabinol]: in data set [1], the “Analyte level, intoxicated state” value is 78 ng/mL and the “Analyte level, post-intoxicated state” value is 8 ng/mL. For the same compound, the “Residual THC in serum” value in data set [2] (chronic users of marijuana, detected for 24 to 48 hours or longer, serum) is 1.0 to 6.4 ng/mL. Besides, the “Residual THC in whole blood” value in data set [2] (chronic users of marijuana, detected for 24 to 48 hours or longer, whole blood) is 0.5 to 3.2 ng/mL. In addition, the “Time of THC peak” value in data set [2] (smoked marijuana, after inhaling) was “first few minutes”. Further, the THC level remaining in data set [2] (smoked marijuana, for 8 hours or more) is 1 to 2 ng/mL.
`CCCCCc1cc(O)c2c(c1)OC(C)(C)[C@@H]1CCC(C(=O)O)=C[C@@H]21` [THC-COOH, 11-nor-9-carboxy-THC]: in data set [1], the “Analyte level, intoxicated state” value is 5 ng/mL and the “Analyte level, post-intoxicated state” value is 11 ng/mL.
